Structures are written as SMILES. “Also recorded” adds a separate entry of the source. Where a name gives a salt, the structure may show the parent alone.

Holding throughout (type): in vivo, mouse
Experiment [1] deals with glossopharyngeal (GL) nerve of T1R3 knock-out and B6 wild-type mice. Nature of the experiment: Whole-nerve recording from the glossopharyngeal (GL) nerve on lingual application of tastants. Conditions: for GL responses of T1R3 knock-out mice compared with B6 wild-type mice: integrated response normalized to 100 mM NH4Cl. Here is the method: (§1) The general linear model for repeated measurements analysis was used to compare the responses of T1R3 knock-out, B6 wild-type and 129 wild-type mice, with tastant concentration as dependant variables and genotype as fixed factor. For each compound, the responses from all concentrations were analyzed together, the response from each concentration being treated as a single value for the multiple measurement analysis. For behavioral tests, the F value is given for comparison of all genotypes. When a significant difference was found, the Tukey's test was used to determine which means differed. P values from the Tukey's test are given for T1R3 knock-out vs. B6 and for T1R3 knock-out vs. 129. When this analysis gave a borderline p value (0.05<p<0.06) each concentration was analyzed individually using the general linear model univariate analysis. For CT and GL nerve responses to glucose, maltose and sucralose the general linear model univariate analysis was used because only one concentration was tested for each of these tastants.
(§2) To examine the contributions of the gustatory nerves to the behavioral responses, we recorded from the chorda tympani (CT) branch of the facial nerve and the glossopharyngeal (GL) nerve of T1R3 knock-out and B6 wild-type mice. Recordings of electrical impulses from the chorda tympani (CT) and the glossopharyngeal (GL) nerves were performed according to known methods (Kawai, K. et al., Proc. Nat'l. Acad. Sci. USA, 97: 11044 (2000)). Male and female mice were used. Tastants were applied at a regular flow rate to the tongue for 30 seconds (CT) or 60 seconds (GL). Tastant concentrations are listed below:
(§3) At 5, 10, 15, 20 and 25 seconds (for the CT) and 5, 10, 20, 30 and 40 seconds (for the GL) after stimulus onset the integrated response magnitudes to each stimulus were measured in the chart records as magnitudes of pen deflection (mm) from baseline (before stimulation) and averaged. These averages were normalized to the response to NH4Cl and analyzed with the General Linear Model Multiple Measures of SPSS with tastant concentrations provided to subjects as “variables” and genotype differences between subjects as “factor”. The single concentrations (see FIG. 14) used for the sugars, sorbitol and saccharin were chosen to be in the midrange of CT responses of C57BL6 mice based on previous studies (Ninomiya, Y. and Imoto, T., Am J. Physiol., 268: R1019 (1995); Ninomiya, Y. et al., Am J. Physiol., 269: R930 (1995); Inoue, M. et al., Chem. Senses, 26: 915 (2001)).

In experiment [2] the test system is T1R3 knock-out, B6 wild-type and 129 wild-type mice. As to the kind of experiment: 48-hour two-bottle preference test (tastant versus water). Conditions: for Behavioral (preference) response of T1R3 knock-out mice compared with B6 wild-type mice: 48 h two-bottle test, concentrations eliciting preference in B6 wild-type; for Response of T1R3 knock-out mice compared with 129 mice: two-bottle preference; for Preference responses compared among B6, 129 and T1R3 knock-out mice: B6 (taster), 129 (nontaster), T1R3 knock-out (null). The method, then: Behavioral tests were conducted to examine the responses of T1R3 knock-out mice to tastants representing five taste qualities (sweet, bitter, salty, sour and umami). Mice of both sexes aged between 2 and 12 months were used. Age- and gender-matched mice were used in the three genotype groups, and littermates were used in the knock-out and B6 wild-type control groups. The two-bottle preference test consisted of giving the mice two bottles, one containing deionized water and the other a tastant solution, for 48 hours. The bottle positions were swapped after 24 hours to eliminate position effects. The ratio of tastant to total liquid consumed was measured and compared between groups using known methods (see, e.g., Wong, G. T. et al., Nature, 381: 796 (1996).
The tastants were presented at two-fold or three-fold ascending concentrations. The mice were allowed a 7-day recovery period with deionized water between tastants. The order of tastants for Group 1 was sucrose, quinine, SC45647, MSG, acesulfame K, sucralose and glucose. The order of tastants for Group 2 was NaCl, HCl and maltose. All tastants were of the highest purity available. MSG solutions also contained 10 micromolar amiloride to block the salty taste of the Na+. Tastant concentrations are listed below in order of presentation:
as §1

Experiment [3] relates to chorda tympani (CT) nerve of T1R3 knock-out and B6 wild-type mice. As to the kind of experiment: Whole-nerve recording from the chorda tympani (CT) nerve on lingual application of tastants. To be noted: integrated response normalized to 100 mM NH4Cl. Here is the method:
as §1, §2, §3

As to `Cl` [HCl], the “GL responses of T1R3 knock-out mice compared with B6 wild-type mice” value (“GL responses … compared with B6 wild-type mice” below) in experiment [1] is “unchanged”.

`N[C@@H](CCC(=O)O)C(=O)[O-].[Na+]` [MSG, monosodium glutamate]: the “Behavioral (preference) response of T1R3 knock-out mice compared with B6 wild-type mice” value (“Behavioral … compared with B6 wild-type mice” below) in experiment [2] is listed as “moderately diminished”; in experiment [2] (listed as monosodium glutamate (MSG)), “reduced response”. In addition, the “Preference of T1R3 knock-out mice compared with B6 wild-type mice” value in experiment [2] (concentrations between 30 and 300 mM) is given as “reduced, but not abolished”. Besides, in experiment [3], the “CT responses of T1R3 knock-out mice compared with B6 wild-type mice” value (from here on “CT responses … compared with B6 wild-type mice”) was “slightly diminished; also recorded: diminished only at the highest concentration tested”. For the same molecule, in experiment [1], the “GL responses … compared with B6 wild-type mice” value is listed as “no differences”.

`O=C[C@H](O)[C@@H](O)[C@H](O)[C@H](O)CO` [Glucose, glucose]: in experiment [2], the “Behavioral … compared with B6 wild-type mice” value is given as “reduced response; also recorded: slightly reduced” and the “Response of T1R3 knock-out mice compared with 129 mice” value (“Response … compared with 129 mice” for short) is on record as “did not differ”. In addition, the “CT responses … compared with B6 wild-type mice” value in experiment [3] is listed as “not significantly diminished”.

For `O=C1NS(=O)(=O)c2ccccc21` [saccharin], the “CT responses … compared with B6 wild-type mice” value in experiment [3] is “near-zero”.

With `[Cl-].[Na+]` [NaCl], the “GL responses … compared with B6 wild-type mice” value in experiment [1] was “unchanged”.

On to `N[C@H](Cc1c[nH]c2ccccc12)C(=O)O` [D-tryptophan], for which, in experiment [3], the “CT responses … compared with B6 wild-type mice” value is recorded as “nearly abolished; also recorded: near-zero”.

In the case of `OC[C@H]1O[C@H](O[C@H]2[C@H](O)[C@@H](O)C(O)O[C@@H]2CO)[C@H](O)[C@@H](O)[C@@H]1O` (mixture of isomers) [Maltose, maltose], in experiment [2], the “Behavioral … compared with B6 wild-type mice” value is listed as “no difference” and the “Response … compared with 129 mice” value is listed as “did not differ”. In experiment [3], the “CT responses … compared with B6 wild-type mice” value was “significant differences; also recorded: diminished; also recorded: moderately or markedly diminished”.

On to `OC[C@H]1O[C@@](CO)(O[C@H]2O[C@H](CO)[C@@H](O)[C@H](O)[C@H]2O)[C@@H](O)[C@@H]1O` [Sucrose, sucrose], for which, in experiment [2], the “Behavioral … compared with B6 wild-type mice” value is recorded as “markedly diminished; also recorded: indifference” and the “Response … compared with 129 mice” value is recorded as “weaker”. In addition, the “Behavior of T1R3 knock-out mice at high tastant concentration” value in experiment [2] (concentrations 5- to 10-fold those needed to elicit a strong preference in B6 wild-type mice) is recorded as “preferred”. In addition, the “CT responses … compared with B6 wild-type mice” value in experiment [3] is “markedly diminished; also recorded: moderately or markedly diminished”. For the same molecule, in experiment [1], the “GL nerve responses of B6 wild-type mice compared with their CT responses” value is listed as “much lower” and the “GL responses … compared with B6 wild-type mice” value is “Significant differences; also recorded: reduced”.

Regarding `OC[C@H]1O[C@H](O[C@]2(CCl)O[C@H](CCl)[C@@H](O)[C@@H]2O)[C@H](O)[C@@H](O)[C@H]1Cl` [Sucralose, sucralose], in experiment [2], the “Behavioral … compared with B6 wild-type mice” value was “indifference”; the “Preference responses compared among B6, 129 and T1R3 knock-out mice” value (“Preference responses compared among B6” below) was “strongest in B6 mice, weakest in T1R3 knock-out mice, and intermediate in 129 mice”. Moreover, the “CT responses … compared with B6 wild-type mice” value in experiment [3] is reported as “near-zero”.

For the molecule `CC1=CC(=O)[N-]S(=O)(=O)O1.[K+]` [AceK, acesulfame K], in experiment [2], the “Behavioral … compared with B6 wild-type mice” value is “indifference”; the “Preference responses compared among B6” value was “strongest in B6 mice, weakest in T1R3 knock-out mice, and intermediate in 129 mice”. The “CT responses … compared with B6 wild-type mice” value in experiment [3] is “markedly diminished; also recorded: near-zero”. Also, in experiment [1], the “GL nerve responses of B6 wild-type mice compared with their CT responses” value is listed as “lower at concentrations below 100 mM, but higher at 300 mM” and the “GL responses … compared with B6 wild-type mice” value is “Significant differences; also recorded: reduced”. In experiment [1] (T1R3 knock-out vs B6 wild-type), the “Concentration at which the reduced GL response of T1R3 knock-out mice was evident” value lay in the range of 30 to 300 mM.

Regarding `C[C@H](NC(=NCC(=O)O)Nc1ccc(C#N)cc1)c1ccccc1` [SC45647], in experiment [2], the “Behavioral … compared with B6 wild-type mice” value is given as “indifference”; the “Preference responses compared among B6” value was “strongest in B6 mice, weakest in T1R3 knock-out mice, and intermediate in 129 mice”. In experiment [3], the “CT responses … compared with B6 wild-type mice” value is reported as “markedly diminished; also recorded: near-zero”. Further, in experiment [1], the “GL nerve responses of B6 wild-type mice compared with their CT responses” value is “much lower” and the “GL responses … compared with B6 wild-type mice” value is “Significant differences; also recorded: reduced”.

`O=C(CO)[C@@H](O)[C@H](O)[C@H](O)CO` [fructose]: in experiment [3], the “CT responses … compared with B6 wild-type mice” value is “diminished; also recorded: moderately or markedly diminished”.

For the molecule `OC[C@@H](O)[C@@H](O)[C@H](O)[C@@H](O)CO` [sorbitol], in experiment [3], the “CT responses … compared with B6 wild-type mice” value is “diminished; also recorded: moderately or markedly diminished”.

Regarding `C=C[C@H]1CN2CC[C@H]1C[C@H]2[C@H](O)c1ccnc2ccc(OC)cc12.C=C[C@H]1CN2CC[C@H]1C[C@H]2[C@H](O)c1ccnc2ccc(OC)cc12.O=S(=O)(O)O` [Quinine, quinine sulfate], the “GL responses … compared with B6 wild-type mice” value in experiment [1] was “unchanged”.
